Experimental data reported in patent publication US12083100B1, “Antiparasitic isoxazoline compounds, long-acting injectable formulations comprising them, methods and uses thereof” (BOEHRINGER INGELHEIM ANIMAL HEALTH USA INC., priority 2016, dated 2024).

System: Rhipicephalus microplus ticks
Test: Efficacy of injectable formulation against Rhipicephalus (Boophilus) microplus ticks on cattle
Type: in vivo
Conditions: for Average % Efficacy (Tick Count): vs untreated control; for efficacy and duration of activity against Rhipicephalus microplus compared with other isoxazoline compounds / speed of onset of efficacy against Rhipicephalus microplus compared with other isoxazoline compounds: injectable composition, compared with afoxolaner, (If) or (S)-If
Procedure: The efficacy of long-acting injectable compositions of the invention comprising the compounds of formula (Ie) and (S)-Ie, against Rhipicephalus microplus ticks on cattle was determined against an untreated control group. The efficacy of compositions comprising the compounds (Ie) and (S)-e were also compared with injectable compositions comprising afoxolaner (formula Ia, 4-[5-[3-chloro-5-(trifluoromethyl)phenyl]-4,5-dihydro-5-(trifluoromethyl)-3-isoxazolyl]-N-[2-oxo-2-[(2,2,2-trifluoroethyl)amino]ethyl]-1-naphthalanecarboxamide), and comparative compounds of formulae (If) and (S)-If shown below.
Each compound was formulated in an injectable composition at a concentration of 10% (w/v) in a carrier comprising 8% (w/v) ethanol and Q.S. with polyethylene glycol 400. The racemic compounds afoxolaner and (If) were dosed at 1.0 mg/kg body weight and the (S)-enantiomers ((S)-Ie and (S)-If) were dosed at 0.5 mg/kg body weight. Six healthy head of cattle were used in each study group. Cattle in Group 1 were untreated (control). Cattle in Groups 2, 3, 4, 5 and 6 were treated on Day 0 subcutaneously with injectable compositions comprising the compounds of formula Ie, (S)-If, (S)-Ie, afoxolaner (Ia) and (If), respectively. Several weeks before treatment, cattle were infested three times a week with approximately 2500 Rhipicephalus microplus larvae to establish ongoing infestations. Each animal was challenged by infestation with approximately 5000 R. microplus larvae on Days 7 and 21 and every 14 days thereafter. Ticks dropping from each animal in the previous 24 hours were collected daily and counted from Day 1 until the end of the study.

[1] = Day 5, 1.0 mg/kg subcutaneous on Day 0 (racemic compounds)
[2] = Day 10, 1.0 mg/kg subcutaneous on Day 0 (racemic compounds)
[3] = Day 20, 1.0 mg/kg subcutaneous on Day 0 (racemic compounds)
[4] = Day 30, 1.0 mg/kg subcutaneous on Day 0 (racemic compounds)
[5] = Day 40, 1.0 mg/kg subcutaneous on Day 0 (racemic compounds)
[6] = Day 49, 1.0 mg/kg subcutaneous on Day 0 (racemic compounds)
[7] = Day 55, 1.0 mg/kg subcutaneous on Day 0 (racemic compounds)
[8] = Day 60, 1.0 mg/kg subcutaneous on Day 0 (racemic compounds)
[9] = Day 65, 1.0 mg/kg subcutaneous on Day 0 (racemic compounds)
[10] = Day 70, 1.0 mg/kg subcutaneous on Day 0 (racemic compounds)
[11] = Day 75, 1.0 mg/kg subcutaneous on Day 0 (racemic compounds)
[12] = listed as formula (Ic) wherein X^1 is chloro, X^2 is fluoro and X^3 is CF3
[13] = listed as formula (Id) in which Y is Y-2, Q is —C(O)NHCH2C(O)NHCH2CF3, X^1 is fluoro and X

Structure (SMILES) | Average % Efficacy (Tick Count) [1] [%] | Average % Efficacy (Tick Count) [2] [%] | Average % Efficacy (Tick Count) [3] [%] | Average % Efficacy (Tick Count) [4] [%] | Average % Efficacy (Tick Count) [5] [%] | Average % Efficacy (Tick Count) [6] [%] | Average % Efficacy (Tick Count) [7] [%] | Average % Efficacy (Tick Count) [8] [%] | Average % Efficacy (Tick Count) [9] [%] | Average % Efficacy (Tick Count) [10] [%] | Average % Efficacy (Tick Count) [11] [%] | other results
O=C(CNC(=O)c1ccc(C2=NOC(c3cc(Cl)c(F)c(C(F)(F)F)c3)(C(F)(F)F)C2)c2ccccc12)NCC(F)(F)F (racemic) [Ie] | 69 | 100 | 100 | 100 | 100 | 100 | 100 | 100 | 100 | 100 | 100 | Average % Efficacy (Tick Count) (Day 80, 1.0 mg/kg subcutaneous on Day 0 (racemic compounds)): 100%; Average % Efficacy (Tick Count) (Day 85, 1.0 mg/kg subcutaneous on Day 0 (racemic compounds)): 100%; Average % Efficacy (Tick Count) (Day 88, 1.0 mg/kg subcutaneous on Day 0 (racemic compounds)): 100%; Average % Efficacy (Tick Count) (Day 95, 1.0 mg/kg subcutaneous on Day 0 (racemic compounds)): 100%; Average % Efficacy (Tick Count) (Day 100, 1.0 mg/kg subcutaneous on Day 0 (racemic compounds)): 100%; Average % Efficacy (Tick Count) (Day 105, 1.0 mg/kg subcutaneous on Day 0 (racemic compounds)): 93%; Average % Efficacy (Tick Count) (Day 110, 1.0 mg/kg subcutaneous on Day 0 (racemic compounds)): 82%; efficacy and duration of activity against Rhipicephalus microplus compared with other isoxazoline compounds: surprising and unexpected efficacy; speed of onset of efficacy against Rhipicephalus microplus compared with other isoxazoline compounds (listed as Je): faster-acting; efficacy and duration of activity against Rhipicephalus microplus compared with other isoxazoline compounds [12]: surprisingly long-lasting and excellent efficacy; speed of onset of efficacy against Rhipicephalus microplus compared with other isoxazoline compounds [12]: quick onset; efficacy and duration of activity against Rhipicephalus microplus compared with other isoxazoline compounds [13]: surprisingly improved duration of activity; speed of onset of efficacy against Rhipicephalus microplus compared with other isoxazoline compounds [13]: surprisingly improved fast-acting efficacy
O=C(CNC(=O)c1ccc(C2=NOC(c3cc(Cl)cc(C(F)(F)F)c3)(C(F)(F)F)C2)c2ccccc12)NCC(F)(F)F (racemic) [afoxolaner, 4-[5-[3-chloro-5-(trifluoromethyl)phenyl]-4,5-dihydro-5-(trifluoromethyl)-3-isoxazolyl]-N-[2-oxo-2-[(2,2,2-trifluoroethyl)amino]ethyl]-1-naphthalanecarboxamide, reference compound] | 38 | 48 | 77 | 99 | 100 | 94 | 73 | 71 | 48 | 3 | 0 | –
O=C(CNC(=O)c1ccc(C2=NO[C@@](c3cc(Cl)cc(Cl)c3)(C(F)(F)F)C2)c2ccccc12)NCC(F)(F)F [(S)-If, reference compound] | – | – | – | – | – | – | – | – | – | – | – | Average % Efficacy (Tick Count) (Day 5, 0.5 mg/kg subcutaneous on Day 0 ((S)-enantiomers)): 39%; Average % Efficacy (Tick Count) (Day 10, 0.5 mg/kg subcutaneous on Day 0 ((S)-enantiomers)): 27%; Average % Efficacy (Tick Count) (Day 20, 0.5 mg/kg subcutaneous on Day 0 ((S)-enantiomers)): 33%; Average % Efficacy (Tick Count) (Day 30, 0.5 mg/kg subcutaneous on Day 0 ((S)-enantiomers)): 86%; Average % Efficacy (Tick Count) (Day 40, 0.5 mg/kg subcutaneous on Day 0 ((S)-enantiomers)): 100%; Average % Efficacy (Tick Count) (Day 49, 0.5 mg/kg subcutaneous on Day 0 ((S)-enantiomers)): 36%; Average % Efficacy (Tick Count) (Day 55, 0.5 mg/kg subcutaneous on Day 0 ((S)-enantiomers)): 0%
O=C(CNC(=O)c1ccc(C2=NOC(c3cc(Cl)cc(Cl)c3)(C(F)(F)F)C2)c2ccccc12)NCC(F)(F)F (stereo not shown) [If, reference compound] | 70 | 62 | 57 | 84 | 100 | 70 | 14 | – | – | – | – | –
